We go through one molecule from patent publication US20230405069A1, “METHODS OF TREATING AND […] CORONAVIRUS AND OTHER INDICATIONS, AND COMPOSITIONS FOR USE WITH SAME” (priority 2020, published 2023).

The experiment concerns viral infection. Kind of experiment: Subjects with symptoms of viral infection treated with disclosed medicinal compositions (symptom improvement / recovery). It counts as in vivo, human. The settings on record: Patient 6; one paracetamol/acetaminophen on Day 1 of symptoms. The source says:
The disclosed compositions are useful in reducing symptoms and/or eliminating viruses in persons suffering from a viral infection or believed to be suffering from a viral infection. Eliminating a virus or an infection from a subject, as used herein, may be referred to as ‘curing’ a subject, for example wherein a subject that has tested positive for the virus (by DNA, RNA, protein, and/or antibody analysis) has no detectable virus (by the same or a different method) after treatment. In these subjects, adults may be administered about 2 ml to about 150 ml per composition per day as a single dose or separated into multiple doses. In some embodiments the subject may be administered the disclosed compounds once, twice, three, or more times a day. In some embodiments, for example, an adult may be administered about 5 ml to about 150 ml of each medicinal composition each day. In many embodiments, (for example where the dose is 15 ml/day) 5 ml is administered 3 times per day as a 5 ml dose. In other embodiments, a 5 ml/day dose may also be divided into 3 or more smaller doses for administration throughout the day—for example about 2 ml three times per day. […]

As for `CC(=O)Nc1ccc(O)cc1` [paracetamol/acetaminophen], the effect on symptoms entry is recorded as “symptoms persisted”.
